From US20240350475A1, “TR[…] CARD[…] BY SARS-COV-2 SPIKE PROTEIN UNDER OBESITY” (priority 2023, published 2024)
Entries after “also recorded” stand apart in the source; their conditions may differ.

Key:
[1] = tested on: HEK_Spike cells; experiment: Palmitic acid (PA)-induced lipotoxicity assay in Spike cells, with or without inhibitors (PI/Hoechst cell viability); type: cell-based, Human; details: for PA-induced Spike protein-exaggerated lipotoxicity (necrosis, cell viability): Spike cells, then 750 M PA 24 h, DMEM 5% FBS
Description: (§1) The HEK293, HEK_pcDNA, and HEK_Spike cells were cultured in a 96-well plate and reached to 80% confluence on the next day before treatment. The cells were kept in DMEM medium with 5% FBS during the entire treatment procedure. The cells were treated with PA (free BSA) in various concentrations from 250 to 1000 M for 24, 48, or 72 h.
(§2) For treatment control groups, the cells were treated by the same concentrations of BSA in parallel. For the inhibitory assay, the cells were pre-incubated by autophagic inhibitors (125 M trigonelline (TRG), or 10 M Wortmannin), or a ferropotosis inhibitor (ferrostatin, 2 M), or an […] (necrostatin-1, 10 M) in DMEM medium with 5% FBS for 2 h, followed by 750 M PA treatment for 24 h. The cells were then co-stained by Propidium Iodide (PI) and Hoechst 33342 NucBlue Live Cell Stain dye (ThermoFisher) to show the dead and live cells. The dyes were excited at 535 nm and 405 nm, respectively. TRG may be provided over a range of concentration such as 50 to 300 M, 60 to 290, 70 to 280, 80 to 270, 90 to 260, 100 to 250, 110 to 240, 120 to 230, 130 to 220, 140 to 210, 150 to 200, 160 to 190, 170 to 180, as well as sub ranges such as from 100M to 200 M, 125M to 175 M, etc., also include individual concentrations, such as 125M, 150 M, 175M, etc. Wortmannin may be provided over a range of concentrations from 5 to 100, 10 to 90, 15 to 80, 20 to 70, 25 to 60, 30 to 50 M, etc., including subranges and individual concentrations within these ranges.
Images were acquired and cell viability analyses were performed using an ImagXpress Pico Automated system.

[2] = tested on: HEK293 and HEK_pcDNA cells; experiment: Palmitic acid (PA)-induced lipotoxicity assay in control cells; type: cell-based, Human; details: PA overload; HEK293 (mock) and pcDNA cells; DMEM 5% FBS
Description: as §1
as §2, with “Wortmannin may be provided over a range of concentrations from 5 to 100, 10 to 90, 15 to 80, 20 to 70, 25 to 60, 30 to 50 M, etc., including subranges and individual concentrations within these ranges.” left out

[3] = tested on: Human dermal microvascular ECs (hDMVECs); type: cell-based
[4] = tested on: H9C2 cells; experiment: Spike-exosome induced mitochondrial morphology change in H9C2 cells (MitoTracker, confocal); type: cell-based; details: spike-exo 150 μg exosomal proteins in 1 ml medium plus TRG 125 μM, 5 days
[5] = tested on: H9C2 cells

CCCCCCCCCCCCCCCC(=O)O [PA, Palmitic acid]
effect of PA on the Spike cells ([1]; 500 M and 250 M PA, after 72 h treatment): modest or mild effect | PA-induced cell death (lipotoxicity) ([1]; Spike cells versus mock and pcDNA cells, PA 750 or 1000 M, 24 to 72 h): significantly augmented | PA-induced cell death (lipotoxicity) [2]: induced cell death

C[n+]1cccc(C(=O)[O-])c1 [TRG, Trigonelline]
PA-induced Spike protein-exaggerated lipotoxicity (necrosis, cell viability) ([1]; pre-incubated with 125 M TRG 2 h): can attenuate; also recorded: can be suppressed; also recorded: significantly mitigated | PA-induced Spike protein-exaggerated lipotoxicity (necrosis, cell viability) ([1]; pre-incubated with 125 M TRG 2 h, listed as trigonelline): could be attenuated | cellular ROS levels [3]: attenuated | density of mitochondria decreased by Spike-EVs plus LDL-c [3]: could restore | diameter of mitochondria decreased by Spike-EVs plus LDL-c [3]: could restore | spike-exo induced mitochondrial fusion (mitochondrial morphology) [4]: can reverse | PA-induced Spike protein-exaggerated lipotoxicity (cell viability) [5]: could be reversed

CCOC(=O)c1ccc(NC2CCCCC2)c(N)c1 [ferrostatin]
PA-induced Spike protein-exaggerated lipotoxicity (necrosis, cell viability) ([1]; pre-incubated with ferrostatin 2 M 2 h): significantly mitigated | PA-induced Spike protein-exaggerated lipotoxicity (necrosis, cell viability) ([1]; pre-incubated with ferrostatin 2 M 2 h, listed as ferrostatin 1): can be suppressed
